Laboratory results from EP1181269B1, “CELL PROLIFERATION INHIBITORS” (ABBOTT LABORATORIES, priority 1999, dated 2000).

Legend:
[1] = test system: human colon adenocarcinoma, MDR positive (HCT-15) cells; assay: 48-hour cellular proliferation assay (sulforhodamine staining, 96-well microtitre format); type: cell-based; settings: 48 hours in culture, 0% = DMSO control, 100% = trichloroacetic acid-treated well; for inhibition at 100 µM: Homo sapiens, HCT-15, 10^-4M compound
Protocol: (§1) Compounds of this invention were tested in a 48-hour cellular proliferation assay which uses human colon adenocarcinoma, MDR positive (HCT-15) cells, and human lung large cell carcinoma, MDR negative (NCI-H460) cells, in the 96-well microtitre format described in Skehan P., et al. New Colorimetric Cytotoxicity Assay for Anticancer Drug Screening. 1990, J. Natl. Cancer Inst. 82:1107-1112. Briefly, the wells of a microtitre plate were charged sequentially with cultured cells and compounds of the invention (1.0 x 10^-4 to 1.0 x 10^-11 M in 10% DMSO prepared by dissolving compounds of the invention in DMSO and adding 11 µL of the DMSO solution to 100 µL of culture medium for a final DMSO concentration of 10%). Two of the following controls were also present in each microtitre plate: a solvent (DMSO) control without drug that yielded a 0% inhibition level and a trichloroacetic acid-treated well that yielded a 100% inhibition level. The cells were grown in culture (37 °C, 5% CO2 atmosphere) for 48 hours then fixed by the addition of trichloroacetic acid. The wells were stained with sulforhodamine, washed with 1% acetic acid, and treated with 0.01 M tris buffer (100 µL) to solubilize the adherent dye. The absorbance of the dye solution was measured with a Molecular Devices SpechaMax340 plate reader. The percent inhibition values were obtained by calculating the proportional response of the experimental values to the absorbance values of the controls.

[2] = test system: human lung large cell carcinoma, MDR negative (NCI-H460) cells; assay: as above; type: cell-based; settings: 10^-4M compound, 48 hours in culture, 0% = DMSO control, 100% = trichloroacetic acid-treated well; for inhibition at 100 µM: Homo sapiens, read-out: NCI-460 % inhibition at 10^-4M
Protocol: as §1

SMILES: COc1cc(S(=O)(=O)Oc2ccc3[nH]ccc3c2)cc(OC)c1OC [Example 15, 1H-indol-5-ol,(3,4,5-trimethoxybenzenesulfonate) ester]
- HCT-15 % inhibition at 10^-4M ([1]; 10^-4M compound): 100.0%
- NCI-460 % inhibition at 10^-4M [2]: 100.0%

SMILES: COc1cc(NS(=O)(=O)c2ccc3c(ccn3C)c2)cc(OC)c1OC [Example 10, 1-methyl-N-(3,4,5-trimethoxyphenyl)-1H-indole-5-sulfonamide]
- inhibition at 100 µM [1]: 100%
- inhibition at 100 µM [2]: 100%

SMILES: COc1cc(NS(=O)(=O)c2ccc3c(c2)CCN3C=O)cc(OC)c1OC [Example 2, 1-formyl-N-(3,4,5-trimethoxyphenyl)indoline-5-sulfonamide]
- inhibition at 100 µM [1]: 79.9%
- inhibition at 100 µM [2]: 74%

SMILES: COc1cc(NS(=O)(=O)c2c[nH]c3ccc(N)cc23)cc(OC)c1OC [Example 8, 5-amino-N-(3,4,5-trimethoxyphenyl)-1H-indole-3-sulfonamide]
- inhibition at 100 µM [1]: 37%
- inhibition at 100 µM [2]: < 9.1%

SMILES: COc1cc(N(C)S(=O)(=O)c2ccc3c(ccn3C)c2)cc(OC)c1OC [Example 11, N,1-dimethyl-N-(3,4,5-trimethoxyphenyl)-1H-indole-5-sulfonamide]
- inhibition at 100 µM [1]: 100%
- inhibition at 100 µM [2]: 99.9%

SMILES: COc1cc(NS(=O)(=O)c2ccc3[nH]ccc3c2)cc(OC)c1OC [Example 9, N-(3,4,5-trimethoxyphenyl)-1H-indole-5-sulfonamide]
- inhibition at 100 µM [1]: 94.1%
- inhibition at 100 µM [2]: 89.1%

SMILES: COc1cc(S(=O)(=O)Oc2ccc3c(ccn3C)c2)cc(OC)c1OC [Example 16, 1-methyl-1H-indol-5-yl 3,4,5-trimethoxybenzenesulfonate]
- inhibition at 100 µM [1]: 100%
- inhibition at 100 µM [2]: 100%

SMILES: COc1cc(NS(=O)(=O)c2ccc3c(c2)CCN3)cc(OC)c1OC [Example 3, N-(3,4,5-trimethoxyphenyl)indoline-5-sulfonamide]
- inhibition at 100 µM [1]: 86.2%
- inhibition at 100 µM [2]: 59.3%

SMILES: COc1cc(NS(=O)(=O)c2cn(C)c3ccc([N+](=O)[O-])cc23)cc(OC)c1OC [Example 6, 1-methyl-5-nitro-N-(3,4,5-trimethoxyphenyl)-1H-indole-3-sulfonamide]
- inhibition at 100 µM [1]: 50.6%
- inhibition at 100 µM [2]: 45.5%

SMILES: COc1ccc(S(=O)(=O)Nc2cc(OC)c(OC)c(OC)c2)cc1 [Example 1, 4-methoxy-N-(3,4,5-trimethoxyphenyl)benzenesulfonamide]
- inhibition at 100 µM [1]: 99.4%
- inhibition at 100 µM [2]: 98.5%

SMILES: COc1cc(NS(=O)(=O)c2c[nH]c3ccc([N+](=O)[O-])cc23)cc(OC)c1OC [Example 4, 5-nitro-N-(3,4,5-trimethoxyphenyl)-1H-indole-3-sulfonamide]
- inhibition at 100 µM [1]: 15.9%
- inhibition at 100 µM [2]: 41.7%

SMILES: COc1cc(NS(=O)(=O)c2ccc3c(c2)CCN3C)cc(OC)c1OC [Example 5, 1-methyl-N-(3,4,5-trimethoxyphenyl)indoline-5-sulfonamide]
- inhibition at 100 µM [1]: 97.6%
- inhibition at 100 µM [2]: 96.1%

SMILES: COc1cc(NS(=O)(=O)c2cn(C)c3ccc(N)cc23)cc(OC)c1OC [Example 7, 5-amino-1-methyl-N-(3,4,5-trimethoxyphenyl)-1H-indole-3-sulfonamide]
- inhibition at 100 µM [1]: 91.9%
- inhibition at 100 µM [2]: 87%
